Literature values in patent US6632839B2, “Capsicum based disinfectant and sterilizant” (priority 1997, dated 2003).
Like-named read-outs stand apart in the source and are kept apart here.

Details: for Solubility in water: water / cold water

Solubility in alcohol, fats, oils: very soluble in fats, oils and alcohol
Solubility in alcohol, fats, oils (listed as capsaicin): soluble in alcohol
Solubility in water: sparingly soluble in water
Solubility in water (listed as capsaicin): insoluble in cold water
Compound: COc1cc(CNC(=O)CCCC/C=C/C(C)C)ccc1O [Capsaicin, N-vanillyl-8-methyl-6-(E)-noneamide]
